In PubChem BioAssay AID330 (DTP/NCI, 2004):
“And” between values parts separate entries of the source, which are not always exact repeats. Equal entries are not always repeated. Inconclusive results and toxic doses are left out. Rule for the calls: active = survival T/C of 150% or more; inactive = T/C below 125% in these data. Peptide text beside a SMILES is read from it.

System: P388 leukemia ip, CD2F1 mice, survival T/C
Assay: NCI In Vivo Anticancer Drug Screen. Data for tumor model P388 Leukemia (intraperitoneal) in CD2F1 (CDF1) mice
Details: endpoint: median survival time, higher = longer survival
Procedure, shortened: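 Mice carrying the transplanted tumor received test compound or vehicle. Survival was recorded in each group, and the value is the treated-group measurement divided by that of the vehicle-treated control group.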

[1] = dose: 50.0 mg/kg/injection, schedule: Q01DX009 (ip), vehicle: Klucel (hydroxypropylcellulose) (HPC)
[2] = dose: 100.0 mg/kg/injection, schedule: Q01DX009 (ip), vehicle: Klucel (hydroxypropylcellulose) (HPC)
[3] = dose: 200.0 mg/kg/injection, schedule: Q01DX009 (ip), vehicle: Klucel (hydroxypropylcellulose) (HPC)
[4] = dose: 50.0 mg/kg/injection, schedule: Q01DX005 (ip), vehicle: saline with Tween-80
[5] = dose: 100.0 mg/kg/injection, schedule: Q01DX005 (ip), vehicle: saline with Tween-80
[6] = dose: 200.0 mg/kg/injection, schedule: Q01DX005 (ip), vehicle: saline with Tween-80
[7] = dose: 100.0 mg/kg/injection, schedule: Q01DX001 (ip), vehicle: saline
[8] = dose: 200.0 mg/kg/injection, schedule: Q01DX001 (ip), vehicle: saline
[9] = dose: 400.0 mg/kg/injection, schedule: Q01DX001 (ip), vehicle: saline
[10] = dose: 50.0 mg/kg/injection, schedule: Q01DX005 (ip), vehicle: Klucel (hydroxypropylcellulose) (HPC)
[11] = dose: 100.0 mg/kg/injection, schedule: Q01DX005 (ip), vehicle: Klucel (hydroxypropylcellulose) (HPC)
[12] = dose: 100.0 mg/kg/injection, schedule: Q04DX003 (ip), vehicle: saline with Tween-80
[13] = dose: 200.0 mg/kg/injection, schedule: Q04DX003 (ip), vehicle: saline with Tween-80
[14] = dose: 400.0 mg/kg/injection, schedule: Q04DX003 (ip), vehicle: saline with Tween-80
[15] = dose: 200.0 mg/kg/injection, schedule: Q01DX005 (ip), vehicle: Klucel (hydroxypropylcellulose) (HPC)
[16] = dose: 100.0 mg/kg/injection, schedule: Q04DX003 (ip), vehicle: Klucel (hydroxypropylcellulose) (HPC)
[17] = dose: 200.0 mg/kg/injection, schedule: Q04DX003 (ip), vehicle: Klucel (hydroxypropylcellulose) (HPC)
[18] = dose: 400.0 mg/kg/injection, schedule: Q04DX003 (ip), vehicle: Klucel (hydroxypropylcellulose) (HPC)
[19] = dose: 50.0 mg/kg/injection, schedule: Q01DX009 (ip), vehicle: saline with Tween-80
[20] = dose: 100.0 mg/kg/injection, schedule: Q01DX009 (ip), vehicle: saline with Tween-80
[21] = dose: 200.0 mg/kg/injection, schedule: Q01DX009 (ip), vehicle: saline with Tween-80
[22] = dose: 25.0 mg/kg/injection, schedule: Q01DX009 (ip), vehicle: saline with Tween-80
[23] = dose: 12.5 mg/kg/injection, schedule: Q01DX009 (ip), vehicle: saline with Tween-80

Measured: T/C

Cn1ncc2c(=O)[nH]cnc21
inactive: [1] 93 % of control | [2] 93 % of control | [3] 96 % of control | dose: 400.0 mg/kg/injection, schedule: Q01DX009 (ip), vehicle: Klucel (hydroxypropylcellulose) (HPC) 97 % of control

C#Cc1cccc(N=Cc2cc(Cl)cc(Cl)c2O)c1
inactive: [4] 102 % of control | [5] 102 % of control | [6] 108 % of control

CNC(=O)Oc1ccc(OC2OC(CO)C(O)C(O)C2O)c2ccccc12 (stereo unspecified)
inactive: [7] 101 % of control | [8] 104 % of control | [9] 103 % of control

CCOP(=O)(OCC)C(C#N)OC(C)(C)C (stereo unspecified)
inactive: dose: 60.0 mg/kg/injection, schedule: Q01DX005 (ip), vehicle: saline with Tween-80 109 % of control | dose: 120.0 mg/kg/injection, schedule: Q01DX005 (ip), vehicle: saline with Tween-80 93 % of control

CCCN(CCC)C1=CC(=O)C(N(CCC)CCC)=CC1=O
inactive: [10] 117 % of control | [11] 89 % of control

NC(Cc1ccccc1)C(=O)NC(Cc1ccccc1)C(=O)O (stereo not drawn) (H-Phe-Phe-OH; configuration not given here)
inactive: dose: 50.0 mg/kg/injection, schedule: Q01DX009 (ip), vehicle: saline 96 % of control | dose: 100.0 mg/kg/injection, schedule: Q01DX009 (ip), vehicle: saline 99 % of control | dose: 200.0 mg/kg/injection, schedule: Q01DX009 (ip), vehicle: saline 94 % of control

CC(O)CNC1=C(Cl)C(=O)c2ccccc2C1=O (stereo unspecified)
inactive: dose: 12.5 mg/kg/injection, schedule: Q01DX009 (ip), vehicle: distilled water + Tween-80 100 % of control | dose: 25.0 mg/kg/injection, schedule: Q01DX009 (ip), vehicle: distilled water + Tween-80 103 % of control | dose: 50.0 mg/kg/injection, schedule: Q01DX009 (ip), vehicle: distilled water + Tween-80 100 % of control | dose: 100.0 mg/kg/injection, schedule: Q01DX009 (ip), vehicle: distilled water + Tween-80 98 % of control | dose: 200.0 mg/kg/injection, schedule: Q01DX009 (ip), vehicle: distilled water + Tween-80 92 % of control

Cn1nnnc1NN(c1nnnn1C)C1C=CCC=C1
inactive: [12] 99 % of control | [13] 97 % of control | [14] 98 % of control

COc1ccc2c3c(cnc2c1)C(=O)CCC3
inactive: [4] 104 % of control | [5] 101 % of control | [6] 96 % of control

O=C(Nc1ccccc1)C1(c2ccccc2)CCCCC1
inactive: dose: 25.0 mg/kg/injection, schedule: Q01DX005 (ip), vehicle: Klucel (hydroxypropylcellulose) (HPC) 101 % of control | [10] 99 % of control | [11] 100 % of control | [15] 93 % of control

CC1=CC(O)C(O)C2(C)C1CC(=O)C13COC4OC(CC1C4=O)C(O)C32 (stereo unspecified)
inactive: dose: 0.5 mg/kg/injection, schedule: Q01DX009 (ip), vehicle: saline 102 % of control | dose: 1.0 mg/kg/injection, schedule: Q01DX009 (ip), vehicle: saline 103 % of control | dose: 2.0 mg/kg/injection, schedule: Q01DX009 (ip), vehicle: Klucel (hydroxypropylcellulose) (HPC) 96 % of control and 97 % of control | dose: 2.0 mg/kg/injection, schedule: Q01DX009 (ip), vehicle: saline 107 % of control | dose: 4.0 mg/kg/injection, schedule: Q01DX009 (ip), vehicle: Klucel (hydroxypropylcellulose) (HPC) 100 % of control and 111 % of control and 92 % of control | dose: 4.0 mg/kg/injection, schedule: Q01DX009 (ip), vehicle: saline 102 % of control | dose: 8.0 mg/kg/injection, schedule: Q01DX009 (ip), vehicle: Klucel (hydroxypropylcellulose) (HPC) 98 % of control and 94 % of control | dose: 16.0 mg/kg/injection, schedule: Q01DX009 (ip), vehicle: Klucel (hydroxypropylcellulose) (HPC) 92 % of control | dose: 32.0 mg/kg/injection, schedule: Q01DX009 (ip), vehicle: Klucel (hydroxypropylcellulose) (HPC) 86 % of control

CN1C(=O)CN2CCc3ccccc3C2c2cc(Cl)ccc21 (stereo unspecified)
inactive: [4] 92 % of control | [5] 98 % of control | [6] 98 % of control

COc1cc2c(c(OC)c1OC)-c1oncc1CC2
inactive: [16] 90 % of control | [17] 92 % of control | [18] 87 % of control

O=C1NC(=O)C2(CCCc3ccc([N+](=O)[O-])cc32)N1 (stereo unspecified)
inactive: [19] 99 % of control | [20] 99 % of control | [21] 97 % of control

NC(Cc1ccc([N+](=O)[O-])cc1)C(=O)O (stereo unspecified)
inactive: [7] 104 % of control | [12] 104 % of control | [8] 104 % of control | [13] 100 % of control | [9] 109 % of control | [14] 100 % of control

CCOC(CBr)(OCC)OCC
inactive: [22] 94 % of control | [19] 113 % of control | [20] 113 % of control

O=C1OCC/C1=C1/NCCNC1=O
inactive: [19] 91 % of control | [20] 116 % of control | [21] 109 % of control

O=[N+]([O-])c1ccc(NN=C(CO)CO)c([N+](=O)[O-])c1
inactive: dose: 50.0 mg/kg/injection, schedule: Q01DX009 (ip), vehicle: suspension in saline 98 % of control | dose: 100.0 mg/kg/injection, schedule: Q01DX009 (ip), vehicle: suspension in saline 98 % of control | dose: 200.0 mg/kg/injection, schedule: Q01DX009 (ip), vehicle: suspension in saline 97 % of control | dose: 400.0 mg/kg/injection, schedule: Q01DX009 (ip), vehicle: suspension in saline 97 % of control

CC(=O)OC1=CC(=O)N(C(=O)c2ccccc2)C1
inactive: [1] 105 % of control | [2] 116 % of control | [3] 113 % of control

Cc1cc(C)nc(NCCCCNc2nc(C)cc(C)n2)n1
inactive: [10] 92 % of control | [11] 105 % of control | [15] 100 % of control

c1ccc(SNSc2ccccc2)cc1
inactive: [16] 103 % of control | [17] 101 % of control | [18] 106 % of control

O=C1COC(c2ccccc2O)=NN1CCCl
inactive: [19] 103 % of control | [20] 103 % of control | [21] 110 % of control

Cc1ccc(O)c(C(=NCCN=C(c2ccccc2)c2cc(C)ccc2O)c2ccccc2)c1
inactive: [10] 103 % of control and 106 % of control and 98 % of control | [11] 100 % of control and 104 % of control and 118 % of control | [15] 100 % of control and 101 % of control and 121 % of control | dose: 400.0 mg/kg/injection, schedule: Q01DX005 (ip), vehicle: Klucel (hydroxypropylcellulose) (HPC) 96 % of control

C/C(=N\O)C1(C)CC=CCC1CO (stereo unspecified)
inactive: [20] 95 % of control | [21] 100 % of control | dose: 400.0 mg/kg/injection, schedule: Q01DX009 (ip), vehicle: saline with Tween-80 100 % of control

CC(C)Nc1nc(NCC2CC2)nc(ON2C(=O)CCC2=O)n1
inactive: [23] 100 % of control | [22] 99 % of control | [19] 100 % of control and 86 % of control | [21] 104 % of control

O=C(Nc1ccccc1)C1C(=O)C(=O)N(c2ccccc2)C1=O (stereo unspecified)
inactive: [1] 107 % of control | [2] 101 % of control | [3] 99 % of control

CCCCOP(=O)(OCCCC)C(CC(=O)N(CCCC)CCCC)C(=O)N(CCCC)CCCC (stereo unspecified)
inactive: [4] 98 % of control | [5] 102 % of control

Cn1c(=O)c2c(ncn2-c2ccc(N)cn2)n(C)c1=O
inactive: dose: 12.5 mg/kg/injection, schedule: Q01DX005 (ip), vehicle: distilled water + alcohol 98 % of control | dose: 25.0 mg/kg/injection, schedule: Q01DX005 (ip), vehicle: distilled water + alcohol 104 % of control | [10] 96 % of control | dose: 50.0 mg/kg/injection, schedule: Q01DX005 (ip), vehicle: distilled water + alcohol 100 % of control

O=C([O][Hg][C](F)(F)F)C(F)(F)F
inactive: dose: 1.56 mg/kg/injection, schedule: Q04DX003 (ip), vehicle: saline 104 % of control | dose: 3.13 mg/kg/injection, schedule: Q04DX003 (ip), vehicle: saline 101 % of control

NNC(=O)CCCCCCCCCCCCCCCO
inactive: [23] 97 % of control | [22] 88 % of control | [19] 88 % of control

CCOc1ccc(NC(=O)C(=O)NNC(=S)NC)cc1
inactive: [23] 94 % of control | [22] 92 % of control | [19] 92 % of control and 97 % of control
